The conditions of series [1]: cited from earlier work.
A short description of series [2]: RNA encapsulation / entrapment by Ribogreen assay. The conditions noted are these: LNPs with circular RNA, named by ionizable lipid. Format: physicochemical. The method, then:
A QUANT-ITT- RIBOGREEN® RNA assay (Invitrogen Corporation Carlsbad, CA) can be used to evaluate the encapsulation of circRNA by the nanoparticle composition. The samples are diluted to a concentration of approximately 5 μg/mL or 1 μg/mL in a TE buffer solution (10 mM Tris-HCl, 1 mM EDTA, pH 7.5). 50 μL of the diluted samples are transferred to a polystyrene 96 well plate and either 50 μL of TE buffer or 50 μL of a 2-4% Triton X-100 solution is added to the wells. The plate is incubated at a temperature of 37° C. for 15 minutes. The RIBOGREEN® reagent is diluted 1:100 or 1:200 in TE buffer, and 100 μL of this solution is added to each well. The fluorescence intensity can be measured using a fluorescence plate reader (Wallac Victor 1420 Multilabel Counter; Perkin Elmer, Waltham, MA) at an excitation wavelength of, for example, about 480 nm and an emission wavelength of, for example, about 520 nm. The fluorescence values of the reagent blank are subtracted from that of each of the samples and the percentage of free circRNA is determined by dividing the fluorescence intensity of the intact sample (without addition of Triton X-100) by the fluorescence value of the disrupted sample (caused by the addition of Triton X-100). C.
For transfer vehicle compositions including RNA, a QUANT-IT- RIBOGREEN® RNA assay (Invitrogen Corporation Carlsbad, CA) can be used to evaluate the encapsulation of RNA by the transfer vehicle composition. […] The fluorescence intensity can be measured using a fluorescence plate reader (Wallac Victor 1420 Multilablel Counter; Perkin Elmer, Waltham, MA) at an excitation wavelength of, for example, about 480 nm and an emission wavelength of, for example, about 520 nm. The fluorescence values of the reagent blank are subtracted from that of each of the samples and the percentage of free RNA is determined by dividing the fluorescence intensity of the intact sample (without addition of Triton X-100) by the fluorescence value of the disrupted sample (caused by the addition of Triton X-100). […]

Series [3] can be described thus: LNP particle size (Z-average) and polydispersity index by dynamic light scattering. Format: physicochemical. Particulars: LNPs with circular RNA, named by ionizable lipid; for Z-Average(nm): in PBS pH 7.4. The method, then:
The microfluidic chamber is cleaned with ethanol and neMYSIS syringe pumps are prepared by loading a syringe with the RNA solution and another syringe with the ethanolic lipid. Both syringes are loaded and under the control of neMESYS software. The solutions are then applied to the mixing chip at an aqueous to organic phase ratio of 2 and a total flow rate of 22 ml/min (14.67 ml/min for RNA and 7.33 ml/min for the lipid solution. Both pumps are started synchronously. The mixer solution that flowed from the microfluidic chip is collected in 4×1 ml fractions with the first fraction being discarded as waste. The remaining solution containing the circRNA-transfer vehicles is exchanged by using G-25 mini desalting columns to 10 mM Tris-HCl, 1 mM EDTA, at pH 7.5, as described above. Following buffer exchange, the materials are characterized for size, and RNA entrapment through DLS analysis and Ribogreen assays, respectively.
(§1) Dialyzed LNPs were filtered using 0.2 μm filter. Prior to in vivo dosing, LNPs were diluted in PBS. LNP sizes were determined by dynamic light scattering. A cuvette with 1 mL of 20 μg/mL LNPs in PBS (pH 7.4) was measured for Z-average using the Malvern Panalytical Zetasizer Pro. The Z-average and polydispersity index were recorded.
as §1

Series [4] can be described thus: In vivo FLuc expression by IVIS (whole body and organs) after LNP-circRNA dosing. Further details: species or system CD-1 or c57BL/6J mice. Particulars: mice, 0.5 mg/kg luciferase circRNA LNP i.v., named by ionizable lipid. The method, then:
Circular or linear RNA encoding FLuc was generated and loaded into transfer vehicles with the following formulation: 50% ionizable Lipid 10b-15 represented by
10% DSPC, 1.5% PEG-DMG, 38.5% cholesterol. CD-1 mice were dosed at 0.2 mg/kg and luminescence was measured at 6 hours (live IVIS) and 24 hours (live IVIS and ex vivo IVIS). Total Flux (photons/second over a region of interest) of the liver, spleen, kidney, lung, and heart was measured (FIGS. 25 and 26).
Female CD-1 or female c57BL/6J mice ranging from 22-25 g were dosed at 0.5 mg/kg RNA intravenously. Six hours after injection, mice were injected intraperitoneally with 200 μL of D-luciferin at 15 mg/mL concentration. 5 minutes after injection, mice were anesthetized using isoflurane, and placed inside the IVIS Spectrum In Vivo Imaging System (Perkin Elmer) with dorsal side up. Post 10 minutes injection, mice were scanned for luminescence. Mice were euthanized and organs were extracted within 25 minutes of luciferin injection to scan for luminescence in liver, spleen, kidneys, lungs, and heart. Images (FIGS. 33A-B, 34A-B, 35A-B) were analyzed using Living Images (Perkin Elmer) software. Regions of interest were drawn to obtain flux and average radiance and analyzed for biodistribution of protein expression (FIG. 32A-B).

The next series deals with splenic immune cells. Nature of the series: Cre circRNA LNP transfection of splenic immune cells in Ai9 Cre reporter mice (tdTomato). Format: in vivo. Particulars: 0.5 mg/kg Cre circRNA LNP i.v., 48 hr, named by ionizable lipid. The method, then:
Circular RNAs encoding Cre recombinase (Cre) are encapsulated into lipid nanoparticles as previously described. Female, 6-8 week old B6.Cg-Gt(ROSA)26Sortm9(CAG-tdTomato)Hze/J (Ai9) mice were dosed with lipid nanoparticles at 0.5 mg/kg RNA intravenously. Fluorescent tdTomato protein was transcribed and translated in Ai9 mice upon Cre recombination, meaning circular RNAs have been delivered to and translated in tdTomato+ cells. After 48 hr, mice were euthanized and the spleens were harvested, processed into a single cell suspension, and stained with various fluorophore-conjugated antibodies for immunophenotyping via flow cytometry.
Ai9 mice (B6.Cg-Gt(ROSA)26Sortm9(CAG-tdTomato)Hze/J, female, 6-8 weeks, n=3 per group) were injected i.v. with 0.5 mg/kg Cre circRNA LNPs or PBS. Ai9 mice transcribe and translate the fluorescent reporter tdTomato upon Cre recombination; meaning cells which are tdTomato+ have successfully been transfected with Cre circRNA. […] Flow cytometry was performed using an Attune Nxt Flow Cytometer (Thermo).

For the next series, the system named is 1C1C7 cells. Nature of the series: Anti-murine CD19 CAR expression in lipotransfected 1C1C7 cells. Format: cell-based. Particulars: 24 hours after lipotransfection, circRNA named by IRES source virus. The method, then:
After 24 hours, 1C1C7 cells were incubated with His-tagged recombinant murine CD19 (Sino Biological) protein, then stained with a secondary anti-His antibody. Afterwards, the cells were analyzed via flow cytometry.

Where two headings read alike, the source gives them in different places.

The values that follow come from patent publication US20250283073A1 (ORNA THERAPEUTICS, INC., priority 2021, published 2025).

The term pKa denotes the pH at which an ionisable group is half protonated.

With `CCCCCCCCOC(=O)CCCCCCCCCN(CCCCCCCCCC(=O)OCCCCCCCC)CCN(C)C` [Lipid I-13], the pKa in series [1] (Table 1, Representative Lipids of Formula I) is reported as 6.15.
Consider `CCCCCCCCCCCCCCSCCOC(=O)CCN(CCCn1ccnc1C)CCC(=O)OCCSCCCCCCCCCCCCCC` [Lipid 22-S14, bis(2-(tetradecylthio)ethyl) 3,3′-((3-(2-methyl-1H-imidazol-1-yl)propyl)azanediyl)dipropionate], for which the “RNA Entrapment(%)” value in series [2] is 97%. In addition, in series [3], the PDI worked out at 0.05 and the “Z-Average(nm)” value was 64 nm.
In the case of `CCCCCCCCC(CCCCCC)C(=O)OCCCCCCN(CCCCCCOC(=O)C(CCCCCC)CCCCCCCC)CCCn1ccnc1` (stereo not shown) [Lipid 10a-26, ((3-(1H-imidazol-1-yl)propyl)azanediyl)bis(hexane-6,1-diyl) bis(2-hexyldecanoate)], the “RNA Entrapment(%)” value in series [2] is listed as 96%. In series [4] (6 hours), the “whole-body total flux (IVIS)” value is given as “increased whole-body total flux”. The “ex vivo IVIS tissue expression and spleen to liver ratio” value in series [4] is “increased overall expression”. In series [3], the PDI was 0.04 and the “Z-Average(nm)” value stood at 84 nm.
On to `CCCCCCCCCCCCCCSCCOC(=O)CCN(CCCn1ccnc1)CCC(=O)OCCSCCCCCCCCCCCCCC` [Lipid 93-S14, bis(2-(tetradecylthio)ethyl) 3,3′-((3-(1H-imidazol-1-yl)propyl)azanediyl)dipropionate], for which the “RNA Entrapment(%)” value in series [2] is recorded as 95%. Moreover, in series [3], the PDI was found to be 0.04 and the “Z-Average(nm)” value amounted to 74 nm.
With `CCCCCCCCC(CCCCCCCC)COC(=O)CCCCN(CCCCO)CCCCC(=O)OCC(CCCCCCCC)CCCCCCCC` [III-15], the pKa in series [1] (Table 3, Representative Compounds of Formula (III)) is reported as 6.14.
Consider `CCCCCCCCCOC(=O)CCCCCCCN(CCO)CCCCCCCC(=O)OC(CCCCCCCC)CCCCCCCC` [Lipid 10b-15], for which the “ex vivo IVIS tissue expression and spleen to liver ratio” value in series [4] was “maintaining the desired spleen to liver ratios”. Moreover, in the series with splenic immune cells, the “splenic immune cells expressing tdTomato” value is on record as “effective at delivering circular RNAs to many splenic immune cell subsets”.

B1: caprine kobuvirus: "IRES sourced from the indicated virus" in circular RNA constructs "encoding anti-murine CD19 CAR" (nucleic acid)
DNA: GTGGCCACGCCCGGGCCACCGATACTTCCCTTCACTCCTTCGGGACTGTTGGGGAGGAACACAACAGGGCTCCCCTGTTTTCCCATTCCTTCCCCCTTTTCCCAACCCCAACCGCCGTATCTGGTGGCGGCAAGACACACGGGTCTTTCCCTCTAAAGCACAATTGTGTGTGTGTCCCAGGTCCTCCTGCGTACGGTGCGGGAGTGCTCCCACCCAACTGTTGTAAGCCTGTCCAACGCGTCGTCCTGGCAAGACTATGACGTCGCATGTTCCGCTGCGGATGCCGACCGGGTAACCGGTTCCCCAGTGTGTGTAGTGCGATCTTCCAGGTCCTCCTGGTTGGCGTTGTCCAGAAACTGCTTCAGGTAAGTGGGGTGTGCCCAATCCCTACAAAGGTTGATTCTTTCACCACCTTAGGAATGCTCCGGAGGTACCCCAGCAACAGCTGGGATCTGACCGGAGGCTAATTGTCTACGGGTGGTGTTTCCTTTTTCTTTTCACACAACTCTACTGCGTACAACTCACTGACTATCCACTTGCTCTGTCACG
modifications: Description of Unknown: CK1.4; Caprine Kobuvirus variant sequence
Turning to B1, the “anti-mouse CD19 CAR expression” value in the series with 1C1C7 cells is listed as “capable of driving expression of an anti-mouse CD19 CAR”.
